From patent US9000023B2, “Disubstituted phthalazine hedgehog pathway antagonists” (Eli Lilly and Company, priority 2009, dated 2015)
Structures can show the parent of a compound that is named as a salt.

Key:
Gli1 in Daoy cells = assay: Functional assay for measuring the inhibition of Gli1 in Daoy cells (bDNA assay); format: cell-based; settings: Homo sapiens; Daoy cells stimulated with Shh conditioned media, 24 hours with compound, Gli1 transcript by bDNA luminescence
Method: All ligands, solvents, and reagents employed in the following assay are readily available from commercial sources or can be readily prepared by one skilled in the art. Biological activity is determined using a functional assay in Daoy neuronal cancer cells and measures levels of Gli1 ribonucleic acid via a bDNA (branched deoxyribonucleic acid) assay system (Panomics, Inc., Fremont, Calif.). Gli was originally discovered in a Glioblastoma cell line and encodes a zinc finger protein that is activated by Shh signaling. The maximum response is obtained by inducing Gli1 transcription in the Daoy cells with conditioned medium (human embryonic kidney, HEK-293 cells stably expressing recombinant Shh) for 24 hours and then measuring the amount of stimulated Gli1 transcript. […] The bDNA assay system utilizes the technology of branched-chain DNA to allow amplification of a target ribonucleic acid (transcript). […] The addition of a chemilumigenic substrate during the amplification step allows for detection using luminescence. […] The cells are removed from the T225-flasks using trypsin ethylenediaminetetraacetic acid (EDTA), centrifuged, resuspended in media, and then counted. […] The signal is quantified by reading the plates on a Perkin Elmer Envision reader detecting luminescence. […]

CYP3A4 = CYP3A4 (Homo sapiens, UniProt P08684); assay: CYP3A4 Inhibition Assay (human liver microsomes, midazolam substrate); settings: pH 7.4, probe midazolam (5 μM; formation of 1-OH-midazolam)
CYP3A4, sequence (P08684 whole entry): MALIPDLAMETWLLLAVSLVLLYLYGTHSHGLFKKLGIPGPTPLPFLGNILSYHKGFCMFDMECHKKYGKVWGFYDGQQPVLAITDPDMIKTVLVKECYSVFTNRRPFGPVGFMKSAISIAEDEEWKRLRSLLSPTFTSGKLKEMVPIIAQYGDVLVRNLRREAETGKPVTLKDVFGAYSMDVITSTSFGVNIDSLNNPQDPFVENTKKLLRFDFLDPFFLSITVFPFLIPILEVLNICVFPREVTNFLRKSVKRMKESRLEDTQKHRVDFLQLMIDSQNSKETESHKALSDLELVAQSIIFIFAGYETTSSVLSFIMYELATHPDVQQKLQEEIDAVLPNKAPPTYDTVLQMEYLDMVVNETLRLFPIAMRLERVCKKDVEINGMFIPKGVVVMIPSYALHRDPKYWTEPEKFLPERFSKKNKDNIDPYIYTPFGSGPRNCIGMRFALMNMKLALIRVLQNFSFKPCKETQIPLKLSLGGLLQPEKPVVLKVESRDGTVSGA

## CN(C(=O)c1ccc(F)cc1C(F)(F)F)C1CCN(c2nnc(-c3ccnn3C)c3ccccc23)CC1 [Example 1a, 4-Fluoro-N-methyl-N-(1-(4-(1-methyl-1H-pyrazol-5-yl)phthalazin-1-yl)piperidin-4-yl)-2-(trifluoromethyl)benzamide hydrochloride]
Gli1 in Daoy cells
  IC50: ~2.4 nM
CYP3A4
  inhibition at 3 min, 10 μM: 13.5%
